Data as given in US6737383B1, “Herbicidal oxadiazolidines” (priority 1999, dated 2004).

How the values were obtained:
bedstraw = assay: Test B pre/postemergence bedstraw; type: in vivo, Galium aparine
How it was run: (§1)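 Test chemicals in a non-phytotoxic solvent mixture with surfactant were sprayed preemergence onto planted seeds and postemergence onto plants 2 to 18 cm tall (1- to 4-leaf stage). After twelve to sixteen days in a greenhouse, injury was visually rated against untreated controls from 0 (no effect) to 10 (complete control).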

pigweed = assay: Test B pre/postemergence pigweed; type: in vivo, Amaranthus retroflexus
How it was run: as §1

corn = assay: Test B pre/postemergence corn; type: in vivo, Zea mays
How it was run: as §1

blackgrass = assay: Test B pre/postemergence blackgrass; type: in vivo, Alopecurus myosuroides
How it was run: as §1

cocklebur = assay: Test B pre/postemergence cocklebur; type: in vivo, Xanthium strumarium
How it was run: as §1

purple nutsedge = assay: Test B pre/postemergence purple nutsedge; type: in vivo, Cyperus rotundus
How it was run: as §1

rape = assay: Test B pre/postemergence rape; type: in vivo, Brassica napus
How it was run: as §1

surinam grass = assay: Test B pre/postemergence surinam grass; type: in vivo, Brachiaria decumbens
How it was run: as §1

morningglory = assay: Test B pre/postemergence morningglory; type: in vivo, Ipomoea hederacea
How it was run: as §1

wheat = assay: Test B pre/postemergence wheat; type: in vivo, Triticum aestivum
How it was run: as §1

crabgrass = assay: Test B pre/postemergence crabgrass; type: in vivo, Digitaria sanguinalis
How it was run: as §1

duck salad = assay: Test B flood test duck salad; type: in vivo, Heteranthera limosa
How it was run: (§2)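 Plants were grown to the 2-leaf stage before treatment with test chemical, then held in a greenhouse for twelve to sixteen days. Injury was visually rated against untreated controls on a 0–10 scale, where 0 is no effect and 10 is complete control.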

velvetleaf = assay: Test B pre/postemergence velvetleaf; type: in vivo, Abutilon theophrasti
How it was run: as §1

wild oat = assay: Test B pre/postemergence wild oat; type: in vivo, Avena fatua
How it was run: as §1

sugar beet = assay: Test B pre/postemergence sugar beet; type: in vivo, Beta vulgaris
How it was run: as §1

smallflower flatsedge = assay: Test B flood test smallflower flatsedge; type: in vivo, Cyperus difformis
How it was run: as §2

[1] = Postemergence, Rate 125 g/ha, scale 0 to 10, 0 is no effect, 10 is complete control
[2] = Preemergence, Rate 62 g/ha, scale 0 to 10 (0 no effect, 10 complete control)
[3] = Preemergence, Rate 125 g/ha, scale 0 to 10, 0 is no effect, 10 is complete control
[4] = Preemergence, Rate 500 g/ha, scale of 0 to 10 where 0 is no effect and 10 is complete control
[5] = Rate 250 g/ha, Postemergence, scale of 0 to 10 where 0 is no effect and 10 is complete control
[6] = Postemergence, Rate 62 g/ha, scale of 0 to 10, 0 is no effect, 10 is complete control
[7] = Postemergence, Rate 500 g/ha, scale of 0 to 10 where 0 is no effect and 10 is complete control
[8] = Rate 62 g/ha, flood test species, Pre-emergence, visual evaluation after twelve to sixteen days
[9] = Rate 125 g/ha, under heading Pre-emergence, flood test species, visual evaluation after twelve to sixteen days
[10] = Rate 250 g/ha, Pre-emergence (flood test species), scale 0 to 10, 0 is no effect, 10 is complete control
[11] = Rate 500 g/ha, Pre-emergence section of Table B, 0 to 10 scale (0 no effect, 10 complete control)

CCCCCCn1c(=O)on(C(=O)N(c2ccccc2)C(C)C)c1=O [Compound 558]
Bedstraw plant response rating (bedstraw; [1]): 0 | Bedstraw plant response rating (bedstraw; [2]): 0 | Bedstraw plant response rating (bedstraw; [3]): 0 | Bedstraw plant response rating (0 to 10 scale) (bedstraw; Preemergence, Rate 250 g/ha): 0 | Bedstraw plant response rating (bedstraw; [4]): 0 | Plant response rating, Bedstraw (bedstraw; [5]): 0 | Redroot pigweed plant response rating (pigweed; [6]): 0 | Plant response rating, Redroot pigweed (pigweed; [7]): 0 | Redroot pigweed plant response rating (pigweed; [2]): 0 | Redroot pigweed plant response rating (pigweed; [3]): 0 | Redroot pigweed plant response rating (0 to 10 scale) (pigweed; Preemergence, Rate 250 g/ha): 2 | Redroot pigweed plant response rating (pigweed; [4]): 2 | Plant response rating, Redroot pigweed (pigweed; [5]): 0 | Corn plant response rating (corn; [6]): 0 | Corn plant response rating (corn; [1]): 0 | Plant response rating, Corn (corn; [7]): 0 | Corn plant response rating (corn; [2]): 0 | Corn plant response rating (corn; [3]): 0 | Corn plant response rating (0 to 10 scale) (corn; Preemergence, Rate 250 g/ha): 0 | Corn plant response rating (corn; [4]): 0 | Plant response rating, Corn (corn; [5]): 0 | Blackgrass plant response rating (blackgrass; [6]): 0 | Blackgrass plant response rating (blackgrass; [1]): 0 | Plant response rating, Blackgrass (blackgrass; [7]): 2 | Blackgrass plant response rating (blackgrass; [2]): 2 | Blackgrass plant response rating (blackgrass; [3]): 2 | Blackgrass plant response rating (0 to 10 scale) (blackgrass; Preemergence, Rate 250 g/ha): 6 | Blackgrass plant response rating (blackgrass; [4]): 9 | Plant response rating, Blackgrass (blackgrass; [5]): 2 | Cocklebur plant response rating (cocklebur; [6]): 0 | Cocklebur plant response rating (cocklebur; [1]): 0 | Plant response rating, Cocklebur (cocklebur; [7]): 0 | Cocklebur plant response rating (cocklebur; [2]): 0 | Cocklebur plant response rating (cocklebur; [3]): 0 | Cocklebur plant response rating (0 to 10 scale) (cocklebur; Preemergence, Rate 250 g/ha): 0 | Cocklebur plant response rating (cocklebur; [4]): 0 | Plant response rating, Cocklebur (cocklebur; [5]): 0 | Nutsedge plant response rating (purple nutsedge; [6]): 0 | Nutsedge plant response rating (purple nutsedge; [1]): 0 | Plant response rating, Nutsedge (purple nutsedge; [7]): 0 | Nutsedge plant response rating (purple nutsedge; [2]): 0 | Nutsedge plant response rating (purple nutsedge; [3]): 0 | Nutsedge plant response rating (0 to 10 scale) (purple nutsedge; Preemergence, Rate 250 g/ha): 0 | Nutsedge plant response rating (purple nutsedge; [4]): 0 | Plant response rating, Nutsedge (purple nutsedge; [5]): 0 | Rape plant response rating (rape; [6]): 0 | Rape plant response rating (rape; [1]): 0 | Plant response rating, Rape (rape; [7]): 2 | Rape plant response rating (rape; [2]): 0 | Rape plant response rating (rape; [3]): 0 | Rape plant response rating (0 to 10 scale) (rape; Preemergence, Rate 250 g/ha): 2 | Rape plant response rating (rape; [4]): 2 | Plant response rating, Rape (rape; [5]): 0 | B. signalgrass plant response rating (surinam grass; [6]): 0 | Plant response rating, B. signalgrass (surinam grass; [7]): 3 | B. signalgrass plant response rating (surinam grass; [2]): 0 | B. signalgrass plant response rating (surinam grass; [3]): 0 | B. signalgrass plant response rating (0 to 10 scale, 0 is no effect, 10 is complete control) (surinam grass; Preemergence, Rate 250 g/ha): 3 | B. signalgrass plant response rating (surinam grass; [4]): 6 | Plant response rating, B. signalgrass (surinam grass; [5]): 0 | Morningglory plant response rating (morningglory; [6]): 10 | Morningglory plant response rating (morningglory; [1]): 10 | Plant response rating, Morningglory (morningglory; [7]): 10 | Morningglory plant response rating (morningglory; [2]): 0 | Morningglory plant response rating (morningglory; [3]): 0 | Morningglory plant response rating (0 to 10 scale) (morningglory; Preemergence, Rate 250 g/ha): 0 | Morningglory plant response rating (morningglory; [4]): 0 | Plant response rating, Morningglory (morningglory; [5]): 10 | Wheat plant response rating (wheat; [6]): 0 | Plant response rating, Wheat (wheat; [7]): 0 | Wheat plant response rating (wheat; [2]): 0 | Wheat plant response rating (wheat; [3]): 0 | Wheat plant response rating (0 to 10 scale) (wheat; Preemergence, Rate 250 g/ha): 0 | Wheat plant response rating (wheat; [4]): 2 | Plant response rating, Wheat (wheat; [5]): 0 | Crabgrass plant response rating (crabgrass; [6]): 0 | Crabgrass plant response rating (crabgrass; [1]): 0 | Plant response rating, Crabgrass (crabgrass; [7]): 8 | Crabgrass plant response rating (crabgrass; [2]): 8 | Crabgrass plant response rating (crabgrass; [3]): 9 | Crabgrass plant response rating (0 to 10 scale) (crabgrass; Preemergence, Rate 250 g/ha): 9 | Crabgrass plant response rating (crabgrass; [4]): 9 | Plant response rating, Crabgrass (crabgrass; [5]): 8 | Plant response rating, Ducksalad (0 to 10 scale, 0 is no effect, 10 is complete control) (duck salad; [8]): 0 | Ducksalad plant response rating (0 to 10 scale, 0 is no effect, 10 is complete control) (duck salad; [9]): 0 | Ducksalad plant response rating (duck salad; [10]): 0 | Ducksalad plant response rating (duck salad; [11]): 0 | Velvetleaf plant response rating (velvetleaf; [6]): 0 | Plant response rating, Velvetleaf (velvetleaf; [7]): 2 | Velvetleaf plant response rating (velvetleaf; [2]): 0 | Velvetleaf plant response rating (velvetleaf; [3]): 0 | Velvetleaf plant response rating (0 to 10 scale) (velvetleaf; Preemergence, Rate 250 g/ha): 0 | Velvetleaf plant response rating (velvetleaf; [4]): 0 | Plant response rating, Velvetleaf (velvetleaf; [5]): 0 | Wild oats plant response rating (wild oat; [6]): 0 | Plant response rating, Wild oats (wild oat; [7]): 0 | Wild oats plant response rating (wild oat; [2]): 0 | Wild oats plant response rating (wild oat; [3]): 0 | Wild oats plant response rating (0 to 10 scale) (wild oat; Preemergence, Rate 250 g/ha): 0 | Wild oats plant response rating (wild oat; [4]): 2 | Plant response rating, Wild oats (wild oat; [5]): 0 | Sugarbeets plant response rating (sugar beet; [6]): 0 | Plant response rating, Sugarbeets (sugar beet; [7]): 2 | Sugarbeets plant response rating (sugar beet; [2]): 0 | Sugarbeets plant response rating (sugar beet; [3]): 0 | Sugarbeets plant response rating (0 to 10 scale) (sugar beet; Preemergence, Rate 250 g/ha): 0 | Sugarbeets plant response rating (sugar beet; [4]): 2 | Plant response rating, Sugarbeets (sugar beet; [5]): 2 | Plant response rating, S. Flatsedge (0 to 10 scale, 0 is no effect, 10 is complete control) (smallflower flatsedge; [8]): 0 | S. Flatsedge plant response rating (0 to 10 scale, 0 is no effect, 10 is complete control) (smallflower flatsedge; [9]): 0 | S. Flatsedge plant response rating (smallflower flatsedge; [10]): 0 | S. Flatsedge plant response rating (smallflower flatsedge; [11]): 0
